Experimental data: patent US20240262934A1, “STARCH-INDOLE-ACID DERIVATIVE, PREPARATION METHOD THEREFOR, AND USE THEREOF” (SHANDONG SHANWEI IMMUNOTECH CO., LTD., priority 2021, published 2024)
Like-named read-outs stand apart in the source and are kept apart here. One block for each compound: values may come before it.

Legend:
[1] = Concentration of IAA in hepatic portal blood serum for different modes of administration; format: in vivo, mice
Description: Blank control group; • 2.

[2] = Concentration of IAA/IPA in colonic contents for different modes of administration; conditions: for concentration of IAA in feces (colonic contents, FIG. 8), improvement compared with the control group: 0.068 mmol IAANa
Experimental: (§1) A high performance liquid chromatography-tandem mass spectrometry (HPLC-MS/MS) technique was used to detect the content of metabolites IAA/IPA in each sample separately. Determination of the content of IAA/IPA in mouse feces: methanol was added into the collected feces, then vortexing, ultrasound extraction, and centrifuging were performed, a supernatant was taken to obtain an extract, the obtained extract was treated, IAA/IPA internal standards (IAA-d5/IPA-d2) were added for calibration, then purification was performed by using a small HLB solid-phase extraction column (pretreated with 5 mL of methanol and 5 mL water, then rinsed with 5 mL of a methanol/water mixed solution and 5 mL of water, an effluent being discarded, and finally eluted with 5 mL of methanol before use), and an eluate was analyzed by HPLC-MS/MS to detect IAA/IPA. Determination of the content of IAA/IPA in the hepatic portal blood and the peripheral blood: whole blood collected was allowed to stand and centrifuged at low temperature, and a supernatant was taken to obtain serum, and then an internal standard was added into the serum, purification was performed by using a solid-phase extraction column, and metabolites IAA/IPA in an eluate were detected by HPLC-MS/MS by the same method as described above. Determination of the content of IAA/IPA in the colon tissues: methanol was added into colon tissues collected, ultrasonically disrupted and further uniformly ground, then vortexing, ultrasound extraction, and centrifuging were performed, a supernatant was taken to obtain an extract, and then an internal standard was added into serum, purification was performed by using a solid-phase extraction column, and the concentration of IAA/IPA in the extract was detected by HPLC-MS/MS by the same method as described above.
(§2) The experiments were divided into 5 groups in total: • 1. Blank control group; • 2. […] IAANa-containing water drinking group (with the IAANa concentration of 2.68 mg/mL, average daily drinking of 5 mL of water per mouse, and a total intake of 0.068 mmol IAANa); • 4. Gavage group (with the IAANa concentration of 67 mg/mL, daily gavage of 0.2 mL, and a total intake of 0.068 mmol IAANa); and • 5. Intraperitoneal injection group (with the IAANa concentration of 67 mg/mL, daily injection of 0.2 mL, and a total intake of 0.068 mmol IAANa).

[3] = Concentration of IPA in feces of mice fed HAMSIPA feed; format: in vivo; conditions: 15% and 1.5% in feed, one week
Experimental: Indole acid derivatized starches with different degrees of substitution were added to a mouse feed in a ratio of 15% and 1.5%, respectively, and feces were taken to test the IPA content after mice were fed with a special feed prepared for one week.

[4] = test system: Systemic lupus erythematosus model (MRL/lpr); test: Systemic lupus erythematosus model mice: kidney pathology, skin damage, spleen and lymph nodes; format: in vivo; conditions: 1.5% HAMSIAA-0.32 in feed, 14 weeks
Experimental: • 1. Mouse food was prepared from the prepared […] in a certain addition ratio, and SLE model mice and control mice were purchased from Changzhou Cavens Experimental Animal Co., Ltd, aged 4-6 weeks. All mice were randomly divided into 4 groups: • Control group (MRL/MPJ); • Systemic lupus erythematosus model group (MRL/lpr); • Prednisone group (MRL/lpr+Prednisone); and • […] group ([…]). The […] group was given a special feed in which […] was added in a certain proportion for 14 weeks. Kidney tissues were collected after the end of the experiment. • 2. […] After the experiment, the spleens, cervical lymph nodes, and perirenal lymph nodes of each group for mice in this embodiment were collected.

[5] = test system: dextran sulfate sodium (DSS)-induced acute ulcerative colitis; test: DSS-induced acute ulcerative colitis in mice: body weight, colon length, DAI, colon status, tissue sections; format: in vivo; conditions: tested as 15% HAMSIAA-0.49 in feed
Experimental: After the end of the experiment, a disease active index (DAI) of mice was evaluated, mouse colons were taken to measure their lengths, and a colon status of the mice was evaluated by sectioning, and the levels of cytokines IL-10, IL-6, IL-22, etc. in colon tissues of the mice were detected. The effect of […] on the prevention and treatment of DSS-induced acute ulcerative colitis in mice was finally evaluated by these indicators.

[6] = test system: TNF-α, IFN-γ, IL-4, IFN-α, IL-6 and IL-22; test: Serum cytokine content in SLE mice; format: in vivo; conditions: MRL/lpr mice; 1.5% HAMSIAA-0.32; after the experiment
[7] = test system: B cells and CD4+CXCR5+ Tfh in the spleen of MRL/lpr mice; test: B cells, Tfh cells and BAFF in spleens of SLE mice; format: in vivo; conditions: 1.5% HAMSIAA-0.32, after the experiment
Experimental: After the experiment, the expression levels of CD3^− B220^+ B cells, B220^+IgM^+ B cells, B220^+CD138^+ B cells, and B220^+IgD^+ B cells in the spleen for mice in each group in this embodiment were tested. […] Wherein,
After the experiment, the expression levels of CD4^+CXCR5^+ Tfh in the spleens for mice in each group and BAFF in mice in each group in this Example were tested.

[8] = test system: cytokines IL-10, IL-6, IL-1, IL-22 in mouse colon tissue; test: Cytokine levels in colon tissue of DSS colitis mice; format: in vivo; conditions: 1.5% HAMSIAA-0.32 in feed, vs model group
Experimental: After the end of the experiment, a disease active index (DAI) of mice was evaluated, mouse colons were taken to measure their lengths, and a colon status of the mice was evaluated by sectioning, and the levels of cytokines IL-10, IL-6, IL-22, etc. in colon tissues of the mice were detected.

[9] = test system: ANA, Anti-dsDNA lgG2a, and Anti-Smith immune antibodies; test: Serum immune antibodies in SLE mice by ELISA; format: in vivo; conditions: MRL/lpr mice; 1.5% HAMSIAA-0.32; after one month of treatment and after the experiment
Description: After one month of treatment with HAMSIAA, blood serum samples from each group for mice were collected once. After the experiment, blood serum samples from each group of mice were collected again. The expression levels of ANA, Anti-dsDNA lgG2a, and Anti-Smith immune antibodies in the blood serum were detected by ELISA technique.

[10] = mouse, in vivo
Experimental: as §1, §2

[11] = IAANa-containing drinking water

concentration of IAA in the hepatic portal blood compared with the control group [1, 11]: significant increase
concentration of IAA in the hepatic portal blood compared with the control group ([1]; gavage): significant increase
concentration of IAA in the hepatic portal blood compared with the control group ([1]; intraperitoneal injection): significant increase
concentration of IPA in the colonic contents compared with the control group [2, 11]: not significantly changed
concentration of IAA in feces (colonic contents, FIG. 8), improvement compared with the control group ([2]; IAANa-containing drinking water, 2.68 mg/mL): about 30 times
concentration of IPA in the colonic contents compared with the control group ([2]; gavage): not significantly changed
concentration of IAA in feces (colonic contents, FIG. 8), improvement compared with the control group ([2]; gavage, 67 mg/mL, 0.2 mL daily): about 7 times
concentration of IPA in the colonic contents compared with the control group ([2]; intraperitoneal injection): not significantly changed
concentration of IAA in feces (colonic contents, FIG. 8), improvement compared with the control group ([2]; intraperitoneal injection, 67 mg/mL, 0.2 mL daily): about 7 times
Compound: O=C([O-])Cc1c[nH]c2ccccc12.[Na+] [IAANa]

Compound: Indolepropionic Acid Derivatized High-Amylose Maize Starch [HAMSIPA]
concentration of IPA in the feces compared with the HAMS group [3]: significantly increased

Compound: indoleacetic acid derivatized high-amylose maize starch [HAMSIAA]
HE staining of kidney tissues (glomerular volume, cellular proliferation, inflammatory cell infiltration) [4]: alleviated
Renal interstitial scores (renal interstitial nephritis) [4]: significantly attenuates
cervical lymph node weight (lymph nodes enlargement) [4]: significantly reduce
glomerular scores (glomerular injury) [4]: significantly attenuates
glomerulonephritis and interstitial nephritis / symptoms in SLE mice compared with the SLE mouse model group [4]: effectively alleviate
perirenal lymph node weight (lymph nodes enlargement) [4]: significantly reduce
scores of the degree of skin damage [4]: significantly reduces
severity of DSS-induced ulcerative colitis [5]: effectively alleviate
IFN-α expression level in blood serum [6]: significantly reduce
IFN-γ expression level in blood serum [6]: significantly reduce
IL-4 expression level in blood serum [6]: significantly reduce
IL-6 expression level in blood serum [6]: significantly reduce
TNF-α expression level in blood serum [6]: significantly reduce
expression level of the anti-inflammatory cytokine IL-22 in blood serum [6]: promotes
expression level (concentration) of BAFF [7]: inhibit
expression level of CD4+CXCR5+ Tfh in the spleen [7]: inhibit
proliferation and differentiation of B cells in the spleen (CD3− B220+ B cells) [7]: inhibit
proportion of B220+CD138+ B cells (plasma cells) in the spleen [7]: reduce
proportion of B220+IgD+ B cells in the spleen [7]: increase
proportion of B220+IgM+ B cells in the spleen [7]: increase
level of anti-inflammatory cytokine IL-10 in the colon tissue ([8]; FIG. 17): significantly increased
level of pro-inflammatory cytokine IL-6 in the colon tissue ([8]; FIG. 18): significantly reduced
level of pro-inflammatory cytokine in the colon tissue ([8]; FIG. 19): significantly reduced
content of IL-22 in the colon tissue ([8]; FIG. 21): significantly increased
expression level of ANA in blood serum [9]: significantly reduce
expression level of Anti-Smith in blood serum [9]: significantly reduce
expression level of Anti-dsDNA lgG2a in blood serum [9]: significantly reduce
concentration of IPA in the colonic contents compared with the control group [10]: significantly increased
